How the values were obtained:
Format in all cases: in vivo
[1] = tested on: greenhouse red spider mite (Tetranychus urticae); assay: Tetranychus test (OP-resistant/dip treatment); settings: 100 ppm active compound, OP-resistant, infested bean plants (Phaseolus vulgaris) dipped
Experimental: Tetranychus Test (OP-Resistant/dip Treatment)
• Solvent: 7 parts by weight of dimethylformamide • Emulsifier: 2 parts by weight of alkylaryl polyglycol ether
To produce a suitable preparation of active compound, 1 part by weight of active compound is mixed with the stated amounts of solvent and emulsifier, and the concentrate is diluted with emulsifier-containing water to the desired concentration.
Bean plants (Phaseolus vulgaris) which are heavily infested by all stages of the greenhouse red spider mite (Tetranychus urticae) are dipped into a preparation of active compound of the desired concentration.
After the desired period of time, the effect in % is determined. 100% means that all spider mites have been killed; 0% means that none of the spider mites has been killed.

[2] = tested on: larvae of the mustard beetle (Phaedon cochleariae); assay: Phaedon larvae test; settings: 500 ppm active compound, cabbage leaves (Brassica oleracea) dipped
Experimental: (§1) Phaedon Larvae Test • Solvent: 7 parts by weight of dimethylformamide • Emulsifier: 2 parts by weight of alkylaryl polyglycol ether To produce a suitable preparation of active compound, 1 part by weight of active compound is mixed with the stated amounts of solvents and emulsifier, and the concentrate is diluted with emulsifier-containing water to the desired concentration. Cabbage leaves (Brassica oleracea) are treated by being dipped into the preparation of active compound of the desired concentration and are populated with larvae of the mustard beetle (Phaedon cochleariae) while the leaves are still moist. After the desired period of time, the kill in % is determined. 100% means that all beetle larvae have been killed; 0% means that none of the beetle larvae has been killed.

[3] = tested on: caterpillars of the armyworm (Spodoptera frugiperda); assay: Spodoptera frugiperda test; settings: 500 ppm active compound, cabbage leaves (Brassica oleracea) dipped
Experimental: as §1, with “Spodoptera frugiperda” for “Phaedon Larvae”, “solvent” for “solvents”, “caterpillars” for “larvae”, “armyworm (Spodoptera frugiperda)” for “mustard beetle (Phaedon cochleariae)”, “caterpillars” for “beetle larvae”

**Q.** With `Cc1ccc(-c2ccc(Cl)cc2)cc1C1=C(OC(=O)OCC(C)C)C(C)(C)ON(C)C1=O` [Example I-c-1] as the molecule, how does the “Kill rate in % after 7^d” value [1] read?
**A.** 98%

**Q.** What about the “Kill rate in % after 7^d” value [2] of the same molecule?
**A.** 100%

**Q.** And the “Kill rate in % after 7^d” value [3]?
**A.** 100%

Reference: US7183238B2, “[1,2]-oxazine-3,5-diones” (Bayer CropScience AG, priority 2001, dated 2007)
